This note sets out measurements from patent US9050345B2, “Pyrrolotriazines as potassium ion channel inhibitors” (BRISTOL-MYERS SQUIBB COMPANY, priority 2013, dated 2015).

The target of the first assay is T1, human KV 1.5 (IKur) (Homo sapiens, UniProt P22460).
T1 construct: expressed in transfected cells
T1 sequence (P22460 whole entry): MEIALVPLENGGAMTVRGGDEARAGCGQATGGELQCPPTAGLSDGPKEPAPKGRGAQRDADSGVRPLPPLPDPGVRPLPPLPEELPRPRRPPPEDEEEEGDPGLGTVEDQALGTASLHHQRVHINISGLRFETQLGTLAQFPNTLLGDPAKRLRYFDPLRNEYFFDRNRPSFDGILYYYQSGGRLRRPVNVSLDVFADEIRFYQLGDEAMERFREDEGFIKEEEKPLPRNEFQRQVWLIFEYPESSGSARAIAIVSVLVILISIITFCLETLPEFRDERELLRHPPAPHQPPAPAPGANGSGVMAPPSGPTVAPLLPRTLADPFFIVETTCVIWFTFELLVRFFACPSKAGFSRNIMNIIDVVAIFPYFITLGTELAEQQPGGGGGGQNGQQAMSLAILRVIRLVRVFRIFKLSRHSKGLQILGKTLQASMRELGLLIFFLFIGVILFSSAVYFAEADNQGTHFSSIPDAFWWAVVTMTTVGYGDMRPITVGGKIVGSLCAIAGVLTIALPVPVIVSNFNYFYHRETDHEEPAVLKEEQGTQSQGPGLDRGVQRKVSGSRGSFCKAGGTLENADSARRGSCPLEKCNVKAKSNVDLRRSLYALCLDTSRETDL
Description: block of IKur current in patch clamped L-929 cells expressing human Kv1.5. Format: cell-based. The note with it: 0.3 μM; patch clamped mammalian L-929 cells stably expressing human Kv1.5. From the text: Assays to determine the degree of activity of a compound as an IKur inhibitor are well known in the art and are described in references such as J. Gen. Physiol., 101(4):513-543 (April 1993), and Br. J. Pharmacol., 115(2):267-274 (May 1995).
Synders, D. J. et al., “A rapidly activating and slowly inactivating potassium channel cloned from human heart: functional analysis after stable mammalian cell culture expression”, J. Gen. Physiol., 101:513-543 (1993). • 2. Zhou, Z. et al., “Block of HERG potassium channels by the antihistamine astemizole and its metabolites desmethylastemizole and norastemizole”, J. Cardiovasc. Electrophysiol., 10(6):836-843 (1999).
In the case of “1-(1-(4- (benzylamino)-5- phenylpyrrolo [1,2-f][1,2,4] triazine-2-carbonyl) piperidin-4-yl)-1H- benzo[d]imidazol- 2(3H)-one [Example 121]”, the “KV1_5% Inh L929 @0.3 μM” value stood at 38.74%. In the case of “4-(4-(benzylamino)-5- phenylpyrrolo [1,2-f][1,2,4] triazin-2-yl) picolinic acid [Example 95]”, the “KV1_5% Inh L929 @0.3 μM” value stood at 98.08%. The same measure, in the same setting: as for `CC(Nc1nc(-c2cncc(S(N)(=O)=O)c2)nn2ccc(-c3ccccc3)c12)c1ccccc1` (stereo not shown) [Example 8, 5-(5-Phenyl-4-(1-phenylethylamino)pyrrolo[1,2-f][1,2,4]triazin-2-yl)pyridine-3-sulfonamide], the figure is 95.79%; as for `OCC(O)c1cncc(-c2nc(NCc3ccccc3)c3c(-c4ccccc4)ccn3n2)c1` (stereo not shown) [Example 14, 1-(5-(4-(Benzylamino)-5-phenylpyrrolo[1,2-f][1,2,4]triazin-2-yl)pyridin-3-yl)ethane-1,2-diol], 90.60%; as for `OCC(O)c1nc(NCc2ccccc2)c2c(-c3ccccc3)ccn2n1` (stereo not shown) [Example 18, 1-(4-(Benzylamino)-5-phenylpyrrolo[1,2-f][1,2,4]triazin-2-yl)ethane-1,2-diol], 47.37%. For the molecule `CC(O)c1cncc(-c2nc(NCc3ccccc3)c3c(-c4ccccc4)ccn3n2)c1` (stereo not shown) [Example 21, 1-(5-(4-(Benzylamino)-5-phenylpyrrolo[1,2-f][1,2,4]triazin-2-yl)pyridin-3-yl)ethanol], the “KV1_5% Inh L929 @0.3 μM” value amounted to 96.63%.

Staying with this assay, now noted: L929, 0.3 μM; patch clamped mammalian L-929 cells stably expressing human Kv1.5; read-out: KV1_5% Inh L929 @0.3 μM.
In the case of `N#C[C@@H]1C[C@H]1c1nc(NCc2ccccn2)c2c(-c3ccccc3)ccn2n1` (racemic) [Example 43, (±)-2-(5-Phenyl-4-(pyridin-2-ylmethylamino)pyrrolo[1,2-f][1,2,4]triazin-2-yl)cyclopropanecarbonitrile], the inhibition at 0.3 µM was found to be 98.6%.

Take `NC(=O)[C@@H]1C[C@H]1c1nc(NCc2ccccn2)c2c(-c3ccccc3)ccn2n1` (racemic) [Example 44, (±)-2-(5-Phenyl-4-(pyridin-2-ylmethylamino)pyrrolo[1,2-f][1,2,4]triazin-2-yl)cyclopropanecarboxamide]: the inhibition at 0.3 µM is 98.8%. As to `NS(=O)(=O)c1cncc(-c2nc(NCc3ccccc3)c3c(-c4ccccc4)ccn3n2)c1` [Example 1, 5-(4-(Benzylamino)-5-phenylpyrrolo[1,2-f][1,2,4]triazin-2-yl)pyridine-3-sulfonamide], the inhibition at 0.3 µM worked out at 96.5%.

Turning to `NS(=O)(=O)c1cncc(-c2nc(NCc3ccccn3)c3c(-c4ccccc4)ccn3n2)c1` [Example 2, 5-(5-Phenyl-4-(pyridin-2-ylmethylamino)pyrrolo[1,2-f][1,2,4]triazin-2-yl)pyridine-3-sulfonamide], the inhibition at 0.3 µM was 98.5%. Same read-out and setting: in the case of `CS(=O)(=O)Nc1cncc(-c2nc(NCc3ccccn3)c3c(-c4ccccc4)ccn3n2)c1` [Example 3, N-(5-(5-Phenyl-4-(pyridin-2-ylmethylamino)pyrrolo[1,2-f][1,2,4]triazin-2-yl)pyridin-3-yl)methanesulfonamide] it was 94.1%; in that of `NC(=O)CC(=O)Nc1cncc(-c2nc(NCc3ccccc3)c3c(-c4ccccc4)ccn3n2)c1` [Example 4, N1-(5-(4-(Benzylamino)-5-phenylpyrrolo[1,2-f][1,2,4]triazin-2-yl)pyridin-3-yl)malonamide], 97.3%; in that of `NS(=O)(=O)c1nc(-c2nc(NCc3ccccn3)c3c(-c4ccccc4)ccn3n2)cs1` [Example 5, 4-(5-Phenyl-4-(pyridin-2-ylmethylamino)pyrrolo[1,2-f][1,2,4]triazin-2-yl)thiazole-2-sulfonamide], 98.5%.

Take `NS(=O)(=O)c1cncc(-c2nc(NCc3ccccn3)c3c(-c4ccc(F)cc4)ccn3n2)c1` [Example 6, 5-(5-(4-Fluorophenyl)-4-(pyridin-2-ylmethylamino)pyrrolo[1,2-f][1,2,4]triazin-2-yl)pyridine-3-sulfonamide]: the inhibition at 0.3 µM worked out at 91.7%.

With `COc1ccc(-c2nc(NCc3ccccn3)c3c(-c4ccc(OC)nc4)ccn3n2)cn1` [Example 7, 2,5-Bis(6-methoxypyridin-3-yl)-N-(pyridin-2-ylmethyl)pyrrolo[1,2-f][1,2,4]triazin-4-amine], the inhibition at 0.3 µM came to 97.8%. Still for that read-out and setting: in the case of `CC(Nc1nc(-c2cncc(S(N)(=O)=O)c2)nn2ccc(-c3ccccc3)c12)c1ccccc1` (stereo not shown) [Example 8, 5-(5-Phenyl-4-(1-phenylethylamino)pyrrolo[1,2-f][1,2,4]triazin-2-yl)pyridine-3-sulfonamide] it was 97.5%. Turning to `NC(=O)c1cncc(-c2nc(NCc3ccccn3)c3c(-c4ccccc4)ccn3n2)c1` [Example 9, 5-(5-Phenyl-4-(pyridin-2-ylmethylamino)pyrrolo[1,2-f][1,2,4]triazin-2-yl)nicotinamide], the inhibition at 0.3 µM turned out to be 98.4%. Consider `O=C(O)c1cncc(-c2nc(NCc3ccccn3)c3c(-c4ccccc4)ccn3n2)c1` [Example 10, 5-(5-Phenyl-4-(pyridin-2-ylmethylamino)pyrrolo[1,2-f][1,2,4]triazin-2-yl)nicotinic acid], for which the inhibition at 0.3 µM stood at 86%. Same read-out and setting: in the case of `c1ccc(CNc2nc(-c3cncc(-c4nnn[nH]4)c3)nn3ccc(-c4ccccc4)c23)cc1` [Example 11, 2-(5-(1H-Tetrazol-5-yl)pyridin-3-yl)-N-benzyl-5-phenylpyrrolo[1,2-f][1,2,4]triazin-4-amine] it was 93.4%; in that of `O=C(O)c1cncc(-c2nc(NCc3ccccc3)c3c(-c4ccccc4)ccn3n2)c1` [Example 12, 5-(4-(Benzylamino)-5-phenylpyrrolo[1,2-f][1,2,4]triazin-2-yl)nicotinic acid], 88.2%; in that of `NC(=O)c1cncc(-c2nc(NCc3ccccc3)c3c(-c4ccccc4)ccn3n2)c1` [Example 13, 5-(4-(Benzylamino)-5-phenylpyrrolo[1,2-f][1,2,4]triazin-2-yl)nicotinamide], 95.9%. `OCC(O)c1cncc(-c2nc(NCc3ccccc3)c3c(-c4ccccc4)ccn3n2)c1` (stereo not shown) [Example 14, 1-(5-(4-(Benzylamino)-5-phenylpyrrolo[1,2-f][1,2,4]triazin-2-yl)pyridin-3-yl)ethane-1,2-diol]: the inhibition at 0.3 µM was determined as 95%. In the case of `NS(=O)(=O)c1cncc(-c2nc(NCc3ccccc3)c3c(-c4ccccc4)ccn3n2)n1` [Example 15, 6-(4-(Benzylamino)-5-phenylpyrrolo[1,2-f][1,2,4]triazin-2-yl)pyrazine-2-sulfonamide], the inhibition at 0.3 µM was 95.5%. In the case of `NS(=O)(=O)c1cc(-c2nc(NCc3ccccc3)c3c(-c4ccccc4)ccn3n2)cnc1O` [Example 16, 5-(4-(Benzylamino)-5-phenylpyrrolo[1,2-f][1,2,4]triazin-2-yl)-2-hydroxypyridine-3-sulfonamide], the inhibition at 0.3 µM turned out to be 91.1%. `CC(C)(O)c1cncc(-c2nc(NCc3ccccc3)c3c(-c4ccccc4)ccn3n2)c1` [Example 17, 2-(5-(4-(Benzylamino)-5-phenylpyrrolo[1,2-f][1,2,4]triazin-2-yl)pyridin-3-yl)propan-2-ol]: the inhibition at 0.3 µM was 92.4%.

For `OCC(O)c1nc(NCc2ccccc2)c2c(-c3ccccc3)ccn2n1` (stereo not shown) [Example 18, 1-(4-(Benzylamino)-5-phenylpyrrolo[1,2-f][1,2,4]triazin-2-yl)ethane-1,2-diol], the inhibition at 0.3 µM was 40.9%. Take `O=C(O)CCc1cncc(-c2nc(NCc3ccccc3)c3c(-c4ccccc4)ccn3n2)c1` [Example 19, 3-(5-(4-(Benzylamino)-5-phenylpyrrolo[1,2-f][1,2,4]triazin-2-yl)pyridin-3-yl)propanoic acid]: the inhibition at 0.3 µM was 91.3%. As for `OCc1cncc(-c2nc(NCc3ccccc3)c3c(-c4ccccc4)ccn3n2)c1` [Example 20, (5-(4-(Benzylamino)-5-phenylpyrrolo[1,2-f][1,2,4]triazin-2-yl)pyridin-3-yl)methanol], the inhibition at 0.3 µM worked out at 96.6%. Consider `CC(O)c1cncc(-c2nc(NCc3ccccc3)c3c(-c4ccccc4)ccn3n2)c1` (stereo not shown) [Example 21, 1-(5-(4-(Benzylamino)-5-phenylpyrrolo[1,2-f][1,2,4]triazin-2-yl)pyridin-3-yl)ethanol], for which the inhibition at 0.3 µM worked out at 93.2%. On the same count and under the same terms, in the case of `COC(=O)C1CCCN1C(=O)c1cncc(-c2nc(NCc3ccccc3)c3c(-c4ccccc4)ccn3n2)c1` (stereo not shown) [Example 22, Methyl 1-(5-(4-(benzylamino)-5-phenylpyrrolo[1,2-f][1,2,4]triazin-2-yl)nicotinoyl)pyrrolidine-2-carboxylate] it was 95.1%; in that of `NS(=O)(=O)c1cncc(-c2nc(NCCOc3cnccn3)c3c(-c4ccccc4)ccn3n2)c1` [Example 23, 5-(5-Phenyl-4-((2-(pyrazin-2-yloxy)ethyl)amino)pyrrolo[2,1-f][1,2,4]triazin-2-yl)pyridine-3-sulfonamide], 91.6%; in that of `OCC(CO)c1cncc(-c2nc(NCc3ccccc3)c3c(-c4ccccc4)ccn3n2)c1` [Example 24, 2-(5-(4-(Benzylamino)-5-phenylpyrrolo[1,2-f][1,2,4]triazin-2-yl)pyridin-3-yl)propane-1,3-diol], 63.5%.

Consider `NC(=O)Nc1cncc(-c2nc(NCc3ccccn3)c3c(-c4ccccc4)ccn3n2)c1` [Example 25, 1-(5-(5-Phenyl-4-(pyridin-2-ylmethylamino)pyrrolo[1,2-f][1,2,4]triazin-2-yl)pyridin-3-yl)urea], for which the inhibition at 0.3 µM worked out at 96.8%. Same read-out and setting: in the case of `CC(=O)Nc1ccc(-c2nc(NCc3ccccn3)c3c(-c4ccccc4)ccn3n2)cc1` [Example 26, N-(4-(5-Phenyl-4-(pyridin-2-ylmethylamino)pyrrolo[1,2-f][1,2,4]triazin-2-yl)phenyl)acetamide] it was 94.5%; in that of `CS(=O)(=O)Nc1cccc(NC(=O)c2nc(NCc3ccccc3)c3c(-c4ccccc4)ccn3n2)c1` [Example 27, 4-(Benzylamino)-N-(3-(methylsulfonamido)phenyl)-5-phenylpyrrolo[1,2-f][1,2,4]triazine-2-carboxamide], 93.2%; in that of `NC(=O)CNS(=O)(=O)c1cncc(-c2nc(NCc3ccccn3)c3c(-c4ccccc4)ccn3n2)c1` [Example 28, 2-(5-(5-Phenyl-4-(pyridin-2-ylmethylamino)pyrrolo[1,2-f][1,2,4]triazin-2-yl)pyridine-3-sulfonamido)acetamide], 97.5%. Same read-out and setting: in the case of `NC(=O)CCC(=O)Nc1cncc(-c2nc(NCc3ccccn3)c3c(-c4ccccc4)ccn3n2)c1` [Example 30, N1-(5-(5-Phenyl-4-(pyridin-2-ylmethylamino)pyrrolo[1,2-f][1,2,4]triazin-2-yl)pyridin-3-yl)succinamide] it was 96.3%.
